Laboratory results as given in ChEMBL document CHEMBL3872249, “Computer design, synthesis, and bioactivity analyses of drugs like fingolimod used in the treatment of multiple sclerosis” (Bioorg Med Chem, 2017).

Columns and labels:
Format in all cases: functional
SH-SY5Y [1] = assay: Effect on IL18 mRNA expression in human SH-SY5Y cells at EC10 by qPCR method relative to beta-actin
SH-SY5Y [2] = assay: Effect on C1S mRNA expression in human SH-SY5Y cells at EC10 by qPCR method relative to beta-actin
SH-SY5Y [3] = assay: Effect on CRHR1 mRNA expression in human SH-SY5Y cells at EC10 by qPCR method relative to beta-actin
SH-SY5Y [4] = assay: Effect on GCGR mRNA expression in human SH-SY5Y cells at EC10 by qPCR method relative to beta-actin
SH-SY5Y [5] = assay: Effect on GRM2 mRNA expression in human SH-SY5Y cells at EC10 by qPCR method relative to beta-actin
U-118-MG [6] = assay: Effect on CSF1 mRNA expression in human U118MG cells at EC10 by qPCR method relative to beta-actin
U-118-MG [7] = assay: Effect on IL18 mRNA expression in human U118MG cells at EC10 by qPCR method relative to beta-actin
U-118-MG [8] = assay: Effect on IL13 mRNA expression in human U118MG cells at EC10 by qPCR method relative to beta-actin
U-118-MG [9] = assay: Effect on GRM1 mRNA expression in human U118MG cells at EC10 by qPCR method relative to beta-actin
SK-N-SH [10] = assay: Effect on IL13 mRNA expression in human SK-N-SH cells at EC10 by qPCR method relative to beta-actin
SK-N-SH [11] = assay: Effect on EDN1 mRNA expression in human SK-N-SH cells at EC10 by qPCR method relative to beta-actin
SK-N-SH [12] = assay: Effect on GRM2 mRNA expression in human SK-N-SH cells at EC10 by qPCR method relative to beta-actin
SH-SY5Y [13] = assay: Effect on CSF1 mRNA expression in human SH-SY5Y cells at EC10 by qPCR method relative to beta-actin
SH-SY5Y [14] = assay: Effect on MAL mRNA expression in human SH-SY5Y cells at EC10 by qPCR method relative to beta-actin
SH-SY5Y [15] = assay: Effect on CD44 mRNA expression in human SH-SY5Y cells at EC10 by qPCR method relative to beta-actin
SH-SY5Y [16] = assay: Effect on FOXP3 mRNA expression in human SH-SY5Y cells at EC10 by qPCR method relative to beta-actin
SH-SY5Y [17] = assay: Effect on AGT mRNA expression in human SH-SY5Y cells at EC10 by qPCR method relative to beta-actin
SH-SY5Y [18] = assay: Effect on GRM7 mRNA expression in human SH-SY5Y cells at EC10 by qPCR method relative to beta-actin
U-118-MG [19] = assay: Effect on ITGB2 mRNA expression in human U118MG cells at EC10 by qPCR method relative to beta-actin
U-118-MG [20] = assay: Effect on APP mRNA expression in human U118MG cells at EC10 by qPCR method relative to beta-actin
U-118-MG [21] = assay: Effect on STAT3 mRNA expression in human U118MG cells at EC10 by qPCR method relative to beta-actin
U-118-MG [22] = assay: Effect on AGT mRNA expression in human U118MG cells at EC10 by qPCR method relative to beta-actin
SK-N-SH [23] = assay: Effect on ITGB2 mRNA expression in human SK-N-SH cells at EC10 by qPCR method relative to beta-actin
SK-N-SH [24] = assay: Effect on CD44 mRNA expression in human SK-N-SH cells at EC10 by qPCR method relative to beta-actin
SK-N-SH [25] = assay: Effect on HIF1 mRNA expression in human SK-N-SH cells at EC10 by qPCR method relative to beta-actin
SK-N-SH [26] = assay: Effect on GRM5 mRNA expression in human SK-N-SH cells at EC10 by qPCR method relative to beta-actin
U-118-MG [27] = assay: Effect on PTGDR mRNA expression in human U118MG cells at EC10 by qPCR method relative to beta-actin
SH-SY5Y [28] = assay: Effect on PLP1 mRNA expression in human SH-SY5Y cells at EC10 by qPCR method relative to beta-actin
SH-SY5Y [29] = assay: Effect on TGFB1 mRNA expression in human SH-SY5Y cells at EC10 by qPCR method relative to beta-actin
SH-SY5Y [30] = assay: Effect on TGFB2 mRNA expression in human SH-SY5Y cells at EC10 by qPCR method relative to beta-actin
SH-SY5Y [31] = assay: Effect on CCL5 mRNA expression in human SH-SY5Y cells at EC10 by qPCR method relative to beta-actin
SH-SY5Y [32] = assay: Effect on CXCL9 mRNA expression in human SH-SY5Y cells at EC10 by qPCR method relative to beta-actin
U-118-MG [33] = assay: Effect on PLP1 mRNA expression in human U118MG cells at EC10 by qPCR method relative to beta-actin
U-118-MG [34] = assay: Effect on SOD1 mRNA expression in human U118MG cells at EC10 by qPCR method relative to beta-actin
U-118-MG [35] = assay: Effect on CXCL9 mRNA expression in human U118MG cells at EC10 by qPCR method relative to beta-actin
U-118-MG [36] = assay: Effect on TNFRSF1A mRNA expression in human U118MG cells at EC10 by qPCR method relative to beta-actin
SK-N-SH [37] = assay: Effect on PLP1 mRNA expression in human SK-N-SH cells at EC10 by qPCR method relative to beta-actin
SK-N-SH [38] = assay: Effect on TGFB1 mRNA expression in human SK-N-SH cells at EC10 by qPCR method relative to beta-actin
SK-N-SH [39] = assay: Effect on TGFB2 mRNA expression in human SK-N-SH cells at EC10 by qPCR method relative to beta-actin
SK-N-SH [40] = assay: Effect on CCL5 mRNA expression in human SK-N-SH cells at EC10 by qPCR method relative to beta-actin
SK-N-SH [41] = assay: Effect on TNFRSF1B mRNA expression in human SK-N-SH cells at EC10 by qPCR method relative to beta-actin

In the case of `CCCCCCCCn1nnnc1CCC(N)(CO)CO.Cl`, the “fold change (FC)” value (SH-SY5Y [1]) is reported as -3.9685, the “fold change (FC)” value (SH-SY5Y [2]) is reported as -2.6686 and the “fold change (FC)” value (SH-SY5Y [3]) is reported as 4.2103. For the same compound, the “fold change (FC)” value (SH-SY5Y [4]) was -4.2885, the “fold change (FC)” value (SH-SY5Y [5]) was -4.9647 and the “fold change (FC)” value (U-118-MG [6]) was -4.2226. The “fold change (FC)” value (U-118-MG [7]) was -3.772, the “fold change (FC)” value (U-118-MG [8]) was -5.9963 and the “fold change (FC)” value (U-118-MG [9]) was -6.1329. For the same compound, the “fold change (FC)” value (SK-N-SH [10]) was -6.6894, the “fold change (FC)” value (SK-N-SH [11]) was 7.7711 and the “fold change (FC)” value (SK-N-SH [12]) was -5.1941.

For `CCCCCCCCc1ccc(CCC(N)(CO)CO)cc1` [FINGOLIMOD], the “fold change (FC)” value (SH-SY5Y [13]) was -3.1329, the “fold change (FC)” value (SH-SY5Y [14]) was -5.5117 and the “fold change (FC)” value (SH-SY5Y [15]) was -4.0629. The “fold change (FC)” value (SH-SY5Y [16]) was -5.5022, the “fold change (FC)” value (SH-SY5Y [17]) was 3.9041 and the “fold change (FC)” value (SH-SY5Y [18]) was -5.361. The “fold change (FC)” value (U-118-MG [19]) was -4.0523, the “fold change (FC)” value (U-118-MG [20]) was -2.5646 and the “fold change (FC)” value (U-118-MG [21]) was -2.5624. For the same compound, the “fold change (FC)” value (U-118-MG [22]) was 5.5368, the “fold change (FC)” value (SK-N-SH [23]) was -6.3947 and the “fold change (FC)” value (SK-N-SH [24]) was -4.3753. For the same compound, the “fold change (FC)” value (SK-N-SH [25]) was -3.1808, the “fold change (FC)” value (SK-N-SH [26]) was -5.4523 and the “fold change (FC)” value (U-118-MG [27]) was -4.4856.

In the case of `CCCCCCCCn1nnnc1-c1ccc(C(O)CC(N)(CO)CO)cc1.Cl` (stereo unspecified), the “fold change (FC)” value (SH-SY5Y [28]) is reported as 3.7859, the “fold change (FC)” value (SH-SY5Y [29]) is reported as -5.0784 and the “fold change (FC)” value (SH-SY5Y [30]) is reported as -2.8716. For the same compound, the “fold change (FC)” value (SH-SY5Y [31]) was -3.3855, the “fold change (FC)” value (SH-SY5Y [32]) was -3.0249 and the “fold change (FC)” value (U-118-MG [33]) was 3.4958. For the same compound, the “fold change (FC)” value (U-118-MG [34]) was 5.2803, the “fold change (FC)” value (U-118-MG [35]) was -4.1536 and the “fold change (FC)” value (U-118-MG [36]) was -3.0144. For the same compound, the “fold change (FC)” value (SK-N-SH [37]) was 4.9417, the “fold change (FC)” value (SK-N-SH [38]) was -5.3267 and the “fold change (FC)” value (SK-N-SH [39]) was -4.9847. For the same compound, the “fold change (FC)” value (SK-N-SH [40]) was -4.1626 and the “fold change (FC)” value (SK-N-SH [41]) was -5.5404.
